These results are taken from patent publication US10537552B2, “Substituted 5-hydroxyoxindoles and their use as analgesics and fever reducers” (CARAFE DRUG INNOVATION, LLC, priority 2015, dated 2020).

The structures appear in SMILES notation.

The test system of series [1] is acetic acid-induced behavioral response. Kind of series: abdominal constriction response test (acetic acid), Example 9. As to conditions: B6C3F1 mice, FIG. 1; for inhibition of acetic acid-induced behavioral response: p.o. 30 min before i.p. 0.9% acetic acid, DMSO/2% methylcellulose, acetaminophen 75 to 300 mg/kg. The class given is in vivo. Here is the method: The example was performed to compare the antinociception (animal equivalent of analgesia) produced by the oral administration of 5-hydroxyoxindole vs acetaminophen in a standard model in mice. Male B6C3F1 mice (Taconic), 8-10 weeks of age were utilized. The mice were received at the facility at least one week prior to testing and housed in standard polycarbonate cages with filter tops. The experiments were done in accordance with the guidelines of the National Institutes of Health (NIH) and with the guidelines of the Committee for Research and Ethical Issues of the IASP (International Association for the Study of Pain) and were approved by the Institutional Animal Care and Use Committee (IACUC) of Taconic Laboratories. Four or five animals were housed per cage and food and water were provided ad libitum. Prior to initiation of the study, the mice were examined to assure adequate health and suitability. They were maintained on a 12 h/12 h light/dark cycle and room temperature was maintained between 20 and 23° C. with a relative humidity maintained between 30 and 70%. All compounds were tested in naïve animals. All compounds were administered orally 10 mL/kg, with a 30 minute pretreatment time. Each compound was dissolved in DMSO as a stock solution and mixed with methylcellulose (2%) before testing. Each compound was initially tested in five mice at a dose of 300 mg/kg in the abdominal constriction response test (Collier, British Journal of Pharmacology and Chemotherapy 32(2): 295-310, 1968). Based upon the results of the initial test, the dose-response relationship for each active compound was determined by measuring the level of analgesia produced by at least 3 escalating doses of the test compound. […] Vehicle or test compound was administered p.o. (per os) 30 min prior to an intraperitoneal (i.p.) injection of 0.9% acetic acid (10 mL/kg) and the number of responses (stretching of the hind limbs accompanied by a contraction of the abdominal muscles) to the acetic acid injection were counted over the subsequent 30 min period. […]

The subject of series [2] is liver (acute liver toxicity). Kind of series: liver histology (pathohistological examination). The class given is in vivo, C57BL/6 mice. As to conditions: mouse, in vivo. Here is the method: In all experiments, mice were fasted overnight and then allocated randomly to receive either acetaminophen or equimolar dose of 5-hydroxy-7-methyloxindole by the intragastric route. Food was returned 4 h after the treatment. The two experimental groups were:
(a) Lower-dose group: Mice were administered acetaminophen (300 mg/kg) or 5-hydroxy-7-methyloxindole (324 mg/kg). After 7 h, the mice were sacrificed and liver and blood samples were taken for the analysis.
Seven hours after receiving the second injection, mice were sacrificed and liver and blood samples were taken for analysis.
A portion of the liver lobes of each mouse was fixed in 4% buffered paraformaldehyde, dehydrated in increasing concentrations of ethanol, and embedded in paraffin. Then, sections of tissue were cut to […] thickness using a rotary microtome, stained with hematoxylin and eosin, and then analyzed under a microscope.

For series [3], the system named is acetic acid-induced writhing responses. Kind of series: acetic acid writhing test (abdominal irritant test), Example 10. Format: in vivo, C57/B16 mice. As to conditions: C57/B16 mice. On the procedure: This example compares the antinociception (animal equivalent of analgesia) produced by the oral administration of 5-hydroxy-7-methyloxindole vs. acetaminophen. Initial studies were performed using 10% DMSO/Cremophor™ as the vehicle. To enable a comparison with other datasets, 5-hydroxy-7-methyloxindole was subsequently tested using 6% Tween 20® reagent as the vehicle.
Male C57/B16 mice (Taconic), 8 weeks of age, were used in this study. The mice were received at Drexel University at least one week prior to testing and housed in standard polycarbonate cages with filter tops. Experiments were done in accordance with the guidelines of the National Institutes of Health and with the guidelines of the Committee for Research and Ethical Issues of IASP and were approved by the Animal Care and Use Committee of Drexel University College of Medicine. Four to five animals were housed per cage and food and water were provided ad libitum. Prior to initiation of the study, the animals were examined to assure adequate health and suitability. Mice were maintained on a 12/12 light/dark cycle and room temperature was maintained between 20 and 23° C. with a relative humidity maintained between 30% and 70%.
Compounds were administered orally 10 mL/kg, with a 30 minute pretreatment time. All compounds were tested in naïve animals. Each compound was dissolved in DMSO as a stock solution and mixed with Cremophor™ (1:1 v/v) before testing. The mixed solutions were diluted 1:4 with sterile water (the final concentration of DMSO/Cremophor™ reagent was 10%) immediately before administration to maximize the amount of compound in solution and improve the uniformity of any compound substance remaining in suspension. It is possible that some of the drug was in suspension at the time of administration. Each compound was initially tested in 5 mice at a dose of 300 mg/kg in the writhing test to assess their ability to alleviate abdominal pain. Based on the results of the initial test, the dose-response relationship for each active compound was determined by measuring the level of analgesia produced by at least 3 escalating doses of the test compound. The measurement of inhibition of writhing for acetaminophen and 5-hydroxy-7-methyloxindole were repeated using 6% Tween® 20 reagent as the vehicle. In this case, both compounds were clearly in suspension when administered to the animals.
A modified version of the standard abdominal irritant test was used to assess analgesia. Mice were habituated for 1 h in a transparent test box (5×5×10 inches) before any injections. Vehicle or test compound was administered p.o. (per os) 30 min prior to an intraperitoneal (i.p.) injection of 0.6% acetic acid (10 mL/kg) and the number of writhing responses (stretching of the hind limbs accompanied by a contraction of the abdominal muscles) to the acetic acid injection were counted over the subsequent 30 min period. The mice from each cage were randomly assigned to the dosing groups and the mice from each group were injected in a random order.
The one-way ANOVA was used to determine significant difference from the vehicle control treated animal. Dose response data for 5-hydroxy-7-methyloxindole was fit by non-linear regression analysis to a logit model to provide an estimate of ED50.

Take `O=C1Cc2cc(O)ccc2N1` [Example 5-HI, 5-hydroxyoxindole]: the “inhibition of acetic acid-induced behavioral response” value in series [1] was “statistically significant, dose-related inhibition”. For the same molecule, in series [1] (p.o.), the “dose needed for same analgesic efficacy as acetaminophen” value is recorded as “higher doses of 5-HI were required”.

For `CC(=O)Nc1ccc(O)cc1` [acetaminophen, N-(4-Hydroxyphenyl)acetamide, reference compound], the “liver injury on pathohistological examination” value in series [2] is “acute liver injury in all of the mice”. Besides, the “inhibition of acetic acid-induced response (writhing)” value in series [3] (p.o. 30 min before i.p. 0.6% acetic acid, 10% DMSO/Cremophor vehicle, 30 to 300 mg/kg, FIG. 2, 3) is “robust and dose-related inhibition”; in series [3] (p.o., 6% Tween 20 vehicle (suspension), 100 and 300 mg/kg, FIG. 5, 6) it was “Only a 300 mg/kg dose produced significant inhibition”. For the same molecule, in series [1], the “inhibition of acetic acid-induced behavioral response” value is “robust and dose-related inhibition”.
